Source: patent US9050341B2, “Methods of treating drug resistant and other tumors by administering 6,7-dialkoxy quinazoline derivatives” (NATCO PHARMA LIMITED, priority 2009, dated 2015)

Tests used:
Test in all cases: KinomeScan kinase profiling
Format in all cases: binding
CAMKK2 = target: T1, CAMKK2 (Homo sapiens, UniProt Q96RR4)
T1 construct: host or cells: T7 phage in E. coli (BL21-derived)
How it was run: (§1)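 Kinases were expressed as T7 phage fusions in a BL21-derived E. coli host and the cleared lysates were used. Ligand beads were blocked with biotin and buffer (1% BSA, 0.05% Tween 20, 1 mM DTT). Compounds came from 40× DMSO stocks, and phage in the eluates was titred by qPCR.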

TESK1 = target: T2, TESK1 (Homo sapiens, UniProt Q15569)
T2 construct: host or cells: E. coli host derived from the BL21 strain, T7 phage lysate
How it was run: as §1

TAOK3 = target: T3, TAOK3 (Homo sapiens, UniProt Q9H2K8)
T3 construct: host or cells: E. coli host derived from the BL21 strain, T7 phage lysate
How it was run: as §1

CSNK1G2 = target: T4, CSNK1G2 (Homo sapiens, UniProt P78368)
T4 construct: purchased Ambit Biosciences Corp (KinomeScan); host or cells: T7 phage in E. coli host derived from BL21
How it was run: as §1

WEE2 = target: T5, WEE2 (Homo sapiens, UniProt P0C1S8)
T5 construct: purchased Ambit Biosciences Corp (KinomeScan); host or cells: E. coli host derived from the BL21 strain (T7 phage lysate)
How it was run: as §1

MAP3K4 = target: T6, MAP3K4 (Homo sapiens, UniProt Q9Y6R4)
T6 construct: host or cells: E. coli derived from BL21, infected with T7 phage
How it was run: as §1

CSNK1D = target: T7, CSNK1D (Homo sapiens, UniProt P48730)
T7 construct: host or cells: T7 phage in E. coli (BL21-derived)
How it was run: as §1

PIM3 = target: T8, PIM3 (Homo sapiens, UniProt Q86V86)
T8 construct: purchased Ambit Biosciences Corp (KinomeScan); host or cells: E. coli host derived from BL21, infected with T7 phage
How it was run: as §1

RAF1 = target: T9, RAF1 (Homo sapiens, UniProt P04049)
T9 construct: host or cells: E. coli host derived from BL21, T7 phage lysate
How it was run: as §1

[1] = target: T10, EGFR (L747-S752del, P753S) (Homo sapiens, UniProt P00533, DEL747-752/P753S)
T10 construct: purchased Ambit Biosciences Corp (KinomeScan); host or cells: T7 phage in E. coli host derived from BL21
How it was run: as §1

LKB1 = target: T11, LKB1 (Homo sapiens, UniProt Q15831)
T11 construct: host or cells: E. coli derived from BL21, infected with T7 phage
How it was run: as §1

MEK2 = target: T12, MEK2 (Homo sapiens, UniProt P36507)
T12 construct: host or cells: E. coli derived from BL21, infected with T7 phage
How it was run: as §1

CLK2 = target: T13, CLK2 (Homo sapiens, UniProt P49760)
T13 construct: host or cells: T7 phage in E. coli (BL21-derived)
How it was run: as §1

PAK2 = target: T14, PAK2 (Homo sapiens, UniProt Q13177)
T14 construct: host or cells: E. coli host derived from the BL21 strain, infected with T7 phage
How it was run: as §1

ARK5 = target: T15, ARK5 (Homo sapiens, UniProt O60285)
T15 construct: purchased Ambit Biosciences Corp (KinomeScan); host or cells: E. coli host derived from the BL21 strain, T7 phage
How it was run: as §1

PKN2 = target: T16, PKN2 (Homo sapiens, UniProt Q16513)
T16 construct: purchased Ambit Biosciences Corp (KinomeScan); host or cells: E. coli host derived from BL21, infected with T7 phage
How it was run: as §1

JNK2 = target: T17, JNK2 (Homo sapiens, UniProt P45984)
T17 construct: host or cells: T7 phage in E. coli host derived from BL21
How it was run: as §1

TSSK1B = target: T18, TSSK1B (Homo sapiens, UniProt Q9BXA7)
T18 construct: purchased Ambit Biosciences Corp (KinomeScan); host or cells: E. coli host derived from the BL21 strain (T7 phage lysate)
How it was run: as §1

FES = target: T19, FES (Homo sapiens, UniProt P07332)
T19 construct: host or cells: E. coli host derived from BL21, infected with T7 phage
How it was run: as §1

CDK11 = target: T20, CDK11 (Homo sapiens, UniProt Q9BWU1)
T20 construct: host or cells: T7 phage in E. coli (BL21-derived)
How it was run: as §1

PKMYT1 = target: T21, PKMYT1 (Homo sapiens, UniProt Q99640)
T21 construct: purchased Ambit Biosciences Corp (KinomeScan); host or cells: E. coli host derived from BL21, infected with T7 phage
How it was run: as §1

CSNK1G1 = target: T22, CSNK1G1 (Homo sapiens, UniProt Q9HCP0)
T22 construct: purchased Ambit Biosciences Corp (KinomeScan); host or cells: T7 phage in E. coli host derived from BL21
How it was run: as §1

PDGFRB = target: T23, PDGFRB (Homo sapiens, UniProt P09619)
T23 construct: host or cells: E. coli host derived from the BL21 strain, infected with T7 phage
How it was run: as §1

T12 sequence (P36507 whole entry): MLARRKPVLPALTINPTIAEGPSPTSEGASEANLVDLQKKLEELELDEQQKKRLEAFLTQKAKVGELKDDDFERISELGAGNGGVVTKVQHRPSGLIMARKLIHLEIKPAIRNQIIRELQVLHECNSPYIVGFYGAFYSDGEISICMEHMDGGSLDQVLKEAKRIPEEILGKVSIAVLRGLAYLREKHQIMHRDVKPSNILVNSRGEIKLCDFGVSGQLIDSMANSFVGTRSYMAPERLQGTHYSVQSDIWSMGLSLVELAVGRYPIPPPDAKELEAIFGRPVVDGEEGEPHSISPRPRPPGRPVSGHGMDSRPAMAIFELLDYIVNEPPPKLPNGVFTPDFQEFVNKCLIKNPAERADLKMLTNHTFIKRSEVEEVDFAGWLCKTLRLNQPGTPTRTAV
T21 sequence (Q99640 whole entry): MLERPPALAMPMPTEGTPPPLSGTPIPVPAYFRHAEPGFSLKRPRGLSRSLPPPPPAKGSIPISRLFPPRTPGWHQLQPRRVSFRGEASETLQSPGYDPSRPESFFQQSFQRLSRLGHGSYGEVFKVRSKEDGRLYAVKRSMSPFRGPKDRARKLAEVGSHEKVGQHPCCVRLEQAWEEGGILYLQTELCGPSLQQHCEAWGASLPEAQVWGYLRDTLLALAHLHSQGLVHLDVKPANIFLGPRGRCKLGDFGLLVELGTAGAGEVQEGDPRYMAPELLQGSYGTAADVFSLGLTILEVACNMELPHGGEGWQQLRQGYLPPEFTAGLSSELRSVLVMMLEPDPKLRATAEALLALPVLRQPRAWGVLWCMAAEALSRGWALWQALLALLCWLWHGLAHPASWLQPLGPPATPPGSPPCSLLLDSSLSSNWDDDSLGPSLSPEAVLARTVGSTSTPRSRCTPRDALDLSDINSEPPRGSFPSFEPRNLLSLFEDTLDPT
T15 sequence (O60285 whole entry): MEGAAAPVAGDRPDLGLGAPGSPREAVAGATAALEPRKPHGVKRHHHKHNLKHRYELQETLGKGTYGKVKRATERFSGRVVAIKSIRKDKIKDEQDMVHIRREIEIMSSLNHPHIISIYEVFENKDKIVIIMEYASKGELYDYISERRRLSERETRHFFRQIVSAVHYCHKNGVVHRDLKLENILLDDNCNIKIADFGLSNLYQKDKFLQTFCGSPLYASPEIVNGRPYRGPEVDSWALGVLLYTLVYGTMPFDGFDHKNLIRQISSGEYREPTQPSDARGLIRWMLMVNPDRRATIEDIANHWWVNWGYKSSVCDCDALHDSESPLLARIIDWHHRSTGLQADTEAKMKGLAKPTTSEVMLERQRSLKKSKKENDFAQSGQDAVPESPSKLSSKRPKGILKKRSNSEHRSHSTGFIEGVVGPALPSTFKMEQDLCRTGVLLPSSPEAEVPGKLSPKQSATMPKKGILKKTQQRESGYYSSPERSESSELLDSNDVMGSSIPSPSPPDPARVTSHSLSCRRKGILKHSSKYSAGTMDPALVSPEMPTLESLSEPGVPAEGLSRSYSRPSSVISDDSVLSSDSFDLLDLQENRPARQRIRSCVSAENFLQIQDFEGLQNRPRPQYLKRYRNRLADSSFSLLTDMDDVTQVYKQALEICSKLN
T3 sequence (Q9H2K8 whole entry): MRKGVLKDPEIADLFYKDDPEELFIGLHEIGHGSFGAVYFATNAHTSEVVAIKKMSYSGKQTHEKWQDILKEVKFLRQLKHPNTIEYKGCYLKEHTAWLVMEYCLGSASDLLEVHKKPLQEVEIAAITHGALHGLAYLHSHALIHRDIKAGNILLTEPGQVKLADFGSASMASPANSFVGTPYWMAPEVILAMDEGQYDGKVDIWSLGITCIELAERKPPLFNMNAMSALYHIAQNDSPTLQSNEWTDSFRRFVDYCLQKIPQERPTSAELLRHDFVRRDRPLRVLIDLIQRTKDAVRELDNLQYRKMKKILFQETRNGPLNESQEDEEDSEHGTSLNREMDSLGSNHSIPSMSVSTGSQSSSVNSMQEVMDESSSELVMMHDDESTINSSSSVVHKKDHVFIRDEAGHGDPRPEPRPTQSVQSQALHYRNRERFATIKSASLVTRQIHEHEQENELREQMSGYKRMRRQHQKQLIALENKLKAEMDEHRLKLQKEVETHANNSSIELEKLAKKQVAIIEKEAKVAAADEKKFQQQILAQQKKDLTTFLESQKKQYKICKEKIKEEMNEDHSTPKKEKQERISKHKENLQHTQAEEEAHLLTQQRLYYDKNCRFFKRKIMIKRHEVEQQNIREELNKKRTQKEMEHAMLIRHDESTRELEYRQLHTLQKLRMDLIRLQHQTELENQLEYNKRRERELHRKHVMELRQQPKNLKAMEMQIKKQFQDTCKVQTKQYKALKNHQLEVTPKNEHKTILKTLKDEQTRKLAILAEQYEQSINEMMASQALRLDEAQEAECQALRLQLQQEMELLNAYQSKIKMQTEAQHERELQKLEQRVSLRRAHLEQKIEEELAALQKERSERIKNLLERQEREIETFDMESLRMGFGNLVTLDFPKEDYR
T9 sequence (P04049 whole entry): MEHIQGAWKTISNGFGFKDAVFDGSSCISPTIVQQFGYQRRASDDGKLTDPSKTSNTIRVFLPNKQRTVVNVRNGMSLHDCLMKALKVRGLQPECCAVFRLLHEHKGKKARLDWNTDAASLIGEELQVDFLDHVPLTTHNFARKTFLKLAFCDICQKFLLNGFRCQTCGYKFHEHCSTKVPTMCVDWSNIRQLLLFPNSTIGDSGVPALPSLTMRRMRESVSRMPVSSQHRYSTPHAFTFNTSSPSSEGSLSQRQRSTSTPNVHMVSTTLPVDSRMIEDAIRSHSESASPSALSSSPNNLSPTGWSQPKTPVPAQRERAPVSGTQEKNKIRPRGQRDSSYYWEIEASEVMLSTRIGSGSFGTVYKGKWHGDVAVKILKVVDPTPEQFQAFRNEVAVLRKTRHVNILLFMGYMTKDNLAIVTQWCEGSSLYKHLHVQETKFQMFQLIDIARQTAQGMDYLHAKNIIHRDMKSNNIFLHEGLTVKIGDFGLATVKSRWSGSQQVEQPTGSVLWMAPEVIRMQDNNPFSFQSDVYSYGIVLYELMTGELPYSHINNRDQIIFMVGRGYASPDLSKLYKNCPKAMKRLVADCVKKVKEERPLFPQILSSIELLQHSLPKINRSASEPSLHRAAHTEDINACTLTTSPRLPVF
T5 sequence (P0C1S8 whole entry): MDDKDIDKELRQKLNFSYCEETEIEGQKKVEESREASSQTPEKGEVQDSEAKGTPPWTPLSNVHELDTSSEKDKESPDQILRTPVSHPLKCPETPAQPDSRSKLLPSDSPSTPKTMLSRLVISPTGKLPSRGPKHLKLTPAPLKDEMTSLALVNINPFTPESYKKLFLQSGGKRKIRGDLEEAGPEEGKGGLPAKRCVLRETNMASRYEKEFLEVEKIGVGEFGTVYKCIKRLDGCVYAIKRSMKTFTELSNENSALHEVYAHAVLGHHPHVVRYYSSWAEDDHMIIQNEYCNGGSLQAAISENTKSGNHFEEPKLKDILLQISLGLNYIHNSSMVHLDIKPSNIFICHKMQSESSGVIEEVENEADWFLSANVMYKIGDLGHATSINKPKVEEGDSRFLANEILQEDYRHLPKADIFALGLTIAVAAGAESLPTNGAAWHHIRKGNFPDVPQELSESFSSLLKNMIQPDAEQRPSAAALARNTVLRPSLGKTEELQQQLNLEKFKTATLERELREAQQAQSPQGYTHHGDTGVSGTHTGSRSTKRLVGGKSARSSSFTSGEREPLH
T11 sequence (Q15831 whole entry): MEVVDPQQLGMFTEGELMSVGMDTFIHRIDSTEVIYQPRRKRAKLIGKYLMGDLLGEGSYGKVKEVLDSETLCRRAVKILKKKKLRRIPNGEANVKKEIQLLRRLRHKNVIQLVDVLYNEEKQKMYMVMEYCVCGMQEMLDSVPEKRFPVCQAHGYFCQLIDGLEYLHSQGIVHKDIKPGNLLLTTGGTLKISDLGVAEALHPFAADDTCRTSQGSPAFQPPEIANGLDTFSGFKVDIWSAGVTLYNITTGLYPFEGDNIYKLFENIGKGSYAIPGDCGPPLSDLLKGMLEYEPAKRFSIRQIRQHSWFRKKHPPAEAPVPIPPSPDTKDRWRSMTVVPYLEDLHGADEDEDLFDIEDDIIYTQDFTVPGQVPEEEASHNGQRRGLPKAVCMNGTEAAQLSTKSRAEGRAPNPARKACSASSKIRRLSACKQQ
T7 sequence (P48730 whole entry): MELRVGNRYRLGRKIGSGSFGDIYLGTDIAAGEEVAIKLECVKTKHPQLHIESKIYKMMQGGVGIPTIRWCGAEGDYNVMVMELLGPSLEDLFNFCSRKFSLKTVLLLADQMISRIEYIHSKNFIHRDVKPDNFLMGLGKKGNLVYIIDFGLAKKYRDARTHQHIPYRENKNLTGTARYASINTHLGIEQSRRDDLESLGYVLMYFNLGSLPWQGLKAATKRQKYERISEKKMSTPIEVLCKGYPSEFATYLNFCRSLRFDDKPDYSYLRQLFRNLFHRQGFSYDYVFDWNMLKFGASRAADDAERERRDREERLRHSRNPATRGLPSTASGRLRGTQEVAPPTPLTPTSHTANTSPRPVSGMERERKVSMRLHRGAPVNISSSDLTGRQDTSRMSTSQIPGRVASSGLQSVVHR
T17 sequence (P45984 whole entry): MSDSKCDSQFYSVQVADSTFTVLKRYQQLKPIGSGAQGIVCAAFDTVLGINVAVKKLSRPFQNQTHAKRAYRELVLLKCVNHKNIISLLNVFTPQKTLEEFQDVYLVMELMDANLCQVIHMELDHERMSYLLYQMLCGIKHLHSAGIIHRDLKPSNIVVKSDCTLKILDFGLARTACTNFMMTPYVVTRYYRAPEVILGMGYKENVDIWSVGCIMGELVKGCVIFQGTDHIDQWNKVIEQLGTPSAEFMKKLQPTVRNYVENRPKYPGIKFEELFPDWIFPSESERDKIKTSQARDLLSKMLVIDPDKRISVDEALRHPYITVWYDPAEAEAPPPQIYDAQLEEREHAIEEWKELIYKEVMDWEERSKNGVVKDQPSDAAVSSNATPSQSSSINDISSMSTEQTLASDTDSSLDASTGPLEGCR

Structure (SMILES): C#Cc1cccc(Nc2ncnc3cc(OC)c(OCCCN4CCOCC4)cc23)c1 [NRC-2694, N-(3-ethylnylphenyl)-7-methoxy-6-[3-(4-morpholinyl)propoxy]-4-quinazolinamine]
- % Ctrl @ 10000 nM (CAMKK2): 60 % Ctrl
- % Ctrl @ 10000 nM (TESK1): 83 % Ctrl
- % Ctrl @ 10000 nM (TAOK3): 76 % Ctrl
- % Ctrl @ 10000 nM (CSNK1G2): 76 % Ctrl
- % Ctrl @ 10000 nM (WEE2): 53 % Ctrl
- % Ctrl @ 10000 nM (MAP3K4): 53 % Ctrl
- % Ctrl @ 10000 nM (CSNK1D): 25 % Ctrl
- % Ctrl @ 10000 nM (PIM3): 23 % Ctrl
- % Ctrl @ 10000 nM (RAF1): 100 % Ctrl
- % Ctrl @ 10000 nM [1]: 0.1 % Ctrl
- % Ctrl @ 10000 nM (LKB1): 69 % Ctrl
- % Ctrl @ 10000 nM (MEK2): 44 % Ctrl
- % Ctrl @ 10000 nM (CLK2): 64 % Ctrl
- % Ctrl @ 10000 nM (PAK2): 67 % Ctrl
- % Ctrl @ 10000 nM (ARK5): 29 % Ctrl
- % Ctrl @ 10000 nM (PKN2): 31 % Ctrl
- % Ctrl @ 10000 nM (JNK2): 95 % Ctrl
- % Ctrl @ 10000 nM (TSSK1B): 93 % Ctrl
- % Ctrl @ 10000 nM (FES): 72 % Ctrl
- % Ctrl @ 10000 nM (CDK11): 87 % Ctrl
- % Ctrl @ 10000 nM (PKMYT1): 74 % Ctrl
- % Ctrl @ 10000 nM (CSNK1G1): 55 % Ctrl
- % Ctrl @ 10000 nM (PDGFRB): 10 % Ctrl
